Legend:
Format in all cases: cell-based, human
LNCap = assay: XTT cell proliferation assay (growth inhibition); conditions: inhibitor pretreatment, then protoapigenone for 12 hours
Experimental: (§1) Cells were seeded at 7×10^3 per well in 96-well culture plates before treatment with different concentrations of protoapigenone for 12, 24 and/or 48 hours. Next, the cytotoxicity of protoapigenone was determined using XTT cell proliferation assay (Sigma, St. Louis, Mo.). The absorbance of wavelength at 490 nm (OD490) and 650 nm (OD650) were determined respectively by enzyme-linked immunosorbent assay (ELISA) reader, and 50% of inhibitory concentration (IC50) was calculated by the value of OD490-OD650. In addition, in order to evaluate the long-term effect, the cells were treated with different concentration of protoapigenone for 3 hours, then were incubated with fresh medium for 14 days so as to form colonies. Finally, the cells were stained with crystal violet and were observed under the microscope.

LNCap cells [1] = assay: Protoapigenone-induced apoptosis with kinase inhibitor pretreatment
Experimental: Human prostate cancer cell line LNCap used in the present invention was purchased from ATCC, Manassas, Va. and was cultured in RPMI 1640 medium supplemented with 10% FBS and penicillin/streptomycin/amphotericin B. LNCap cells were treated with 2.5, 5 and 10 μM protoapigenone respectively and were analyzed. In some experiments, LNCap cells were treated with p38 mitogen-activated protein kinase (MAPK) inhibitor SB203580 or c-Jun NH2-terminal kinase (JNK) ½ inhibitor SP600125 for one hour before protoapigenone treatment.

LNCap cells [2] = assay: Cell cycle analysis (PI flow cytometry); conditions: inhibitor pretreatment
Experimental: The ovarian cancer cells and the prostate cancer cells respectively were treated with protoapigenone at different concentrations (0, 2.5, 5 and 10 μM) for 24 hours and 6 hours (or 12 hours). These cells were harvested by trypsin and fixed with 70% ethanol for 1 hour, washed with phosphate buffered saline (PBS) twice, and resuspended in propidium iodide (PI)/RNase A solution for 30 minutes. In accordance with the mechanism of DNA stained with propidium iodide, the cell cycle and sub-G1 distribution were detected by the FACScan flow cytometry (Becton Dickinson, San Jose, Calif.), and data analysis was done with CellQuest software (BD Bioscience).

p38 MAPK = assay: Immunoblotting, phosphorylation in LNCap cells; conditions: LNCap pretreated 1 hour with inhibitor, then protoapigenone 1 hour
Source text: The concentration of protein supernatant was further determined using the Bio-Rad protein assay kit (Bio-Rad Laboratories, Hercules, Calif.). Whole cell lysates were separated on polyacrylamide sodium dodecyl sulfate (SDS) gels and the proteins were transferred onto the nitrocellulose membrane. Proteins were detected sequentially by the specific primary antibodies, followed by peroxidase-conjugated secondary antibodies, and visualized by the Enhanced chemiluminescence detection system (Amersham, N.J.).

MDAH-2774 = assay: XTT cell proliferation assay (cytotoxicity)
Experimental: as §1

SMILES	survival rate of LNCap cells vs cells only treated with protoapigenone (LNCap)	protoapigenone-induced apoptotic percentage in presence of inhibitor (LNCap cells [1])	effect of inhibitor on protoapigenone-induced S and G2/M phases arrest (LNCap cells [2])	protoapigenone-induced phosphorylation (activation) of p38 MAPK in presence of inhibitor (p38 MAPK)	inhibition of cell growth (MDAH-2774; MDAH-2774, 5 μM cisplatin) [%]	inhibition of cell growth (MDAH-2774; MDAH-2774, 10 μM cisplatin) [%]
C[S+]([O-])c1ccc(-c2nc(-c3ccncc3)c(-c3ccc(F)cc3)[nH]2)cc1 (stereo not drawn) [SB203580, reference compound]	higher	decreased	significantly attenuates	blocked	–	–
N.N.[Cl][Pt][Cl] [cisplatin, cis-diamminedichloridoplatinum (II), reference compound]	–	–	–	–	28.48	36.91
